{
  "source": "patent US6417231B1",
  "about": "“Method and composition for delivering therapeutically effective amounts of pyruvate to a mammal” (priority 1996, dated 2002)",
  "key": {"[1]": {"experiment": "Time course of blood pyruvate concentration after oral gavage (bioavailability of pyruvate)", "type": "in vivo, male Sprague-Dawley rats", "conditions": "rat; for Blood pyruvate concentration: single animals", "from_the_text": "The basic measurement is the time course of serum pyruvate concentration following oral administration of tripyruvin, compared with that following oral administration of sodium pyruvate or a placebo.\nSix male Sprague-Dawley rats, weighing 380±28 grams (mean±standard deviation), were used in the initial animal experiments. The rats were divided into three groups of two rats each, one group of two for the experimental treatment, one group for the conventional sodium pyruvate treatment, and one group for placebo. The rats were housed in hanging wire cages (two per cage) in a room maintained at 22° C., and were kept on a twelve-hour light/dark cycle with lights on at 7 AM. All animals had free access to water and to standard laboratory rodent chow; except that on nights before an experiment food was removed at 6 PM.\nAn initial time-course experiment was performed with the crude reaction mixture, in which tripyruvin and free pyruvate were both present (i.e., with the product of “Step 4” n the synthesis described above, without the further purification of “Step 5.”) 1.14 g of this mixture (76% sodium pyruvate, 24% tripyruvin=0.79 total pyruvate) in 2 mL sterile water was fed by gavage in a single dose. For comparison, rats were fed an equivalent amount of pyruvate as sodium pyruvate in water; or were fed a placebo comprising water only. Blood samples (250 μL) taken from a snipped tail vein were collected before feeding, and at 60, 90, 120, and 150 minutes after gavage feeding.\nThe assay for serum pyruvate concentration was a modification of the Sigma NADH-NAD assay. Collected blood samples were diluted 1:3 in cold 8% perchloric acid (aqueous), and the precipitates were vortexed and centrifuged. Supernatant (100 μL) was pipetted into a microtiter plate. Trizma base (25 μL) was pipetted into the plate, followed by 25 μL of aqueous NADH solution (1 g/2.2 mL). The absorbance of the solution at 340 nm was then measured as a baseline. […] dehydrogenase (50 μL, 10 U/mL) was then pipetted into the plate, and the plate was incubated at 37° C. for 3-5 minutes. Absorbance at 340 nm was again measured (to assay the extent of the reaction NADH→NAD+H^+). Standards and two levels of quality control samples were run with each plate. Results are shown in Table 1 for each of the six rats."}, "Solubility in water": {"experiment": "Solubility in water", "type": "physicochemical", "from_the_text": "After purification, the identity of the tripyruvin was confirmed by laser-desorption mass spectrometry, elemental analysis, and ^1H nuclear magnetic resonance."}, "[2]": {"conditions": "oral gavage, compared with sodium pyruvate"}},
  "note": "Where “and” joins values, the source holds several entries; their conditions need not be identical. Identical values can stand only once.",
  "data": [
    {"smiles": "CC(=O)C(=O)OCC(COC(=O)C(C)=O)OC(=O)C(C)=O", "note": "[tripyruvin, tripyruvyl glycerol]", "values": [
      {"measurement": "Bioavailability of pyruvate", "setting": "[1]; [2]", "value": "higher"},
      {"measurement": "Rise in blood pyruvate levels", "setting": "[1]; [2]", "value": "more rapid rise"},
      {"measurement": "Solubility in water", "setting": "Solubility in water", "value": "freely soluble"}
    ]},
    {"smiles": "CC(=O)C(=O)[O-].[Na+]", "note": "[sodium pyruvate]", "values": [
      {"measurement": "Blood pyruvate concentration", "setting": "[1]; 60 min after single oral gavage dose in 2 mL water", "value": "0.07 mM and 0.10 mM"},
      {"measurement": "Blood pyruvate concentration", "setting": "[1]; 90 min after single oral gavage dose in 2 mL water", "value": "0.07 mM and 0.09 mM"},
      {"measurement": "Blood pyruvate concentration", "setting": "[1]; 120 min after single oral gavage dose in 2 mL water", "value": 0.12, "unit": "mM"},
      {"measurement": "Blood pyruvate concentration", "setting": "[1]; 150 min after single oral gavage dose in 2 mL water", "value": "0.12 mM and 0.16 mM"},
      {"measurement": "Blood pyruvate concentration", "setting": "[1]; time 0 min (before gavage feeding)", "value": "0.07 mM and 0.06 mM"}
    ]}
  ]
}
